Assay results from the supplement of paper PMC10307832.

Columns and labels:
Assay in all cases: relative viability (nuclei count vs DMSO), 5 days (fraction); higher = more cells survive
LXF-289 = system: LXF-289
Procedure, shortened: (§1)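 Relative viability is defined as nuclei in treated wells over nuclei in vehicle wells. Duplicate plates were run and medians reported. Lung cancer cell lines in 1536-well plates were dosed by pin tool one day after seeding, with one drug or with a fixed anchor-drug dose plus five library-drug doses (not always all listed) in √10 steps, and nuclei were counted after 5 days.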

EKVX = system: EKVX
Procedure, shortened: as §1

NCI-H1650 = system: NCI-H1650
Procedure, shortened: as §1

NCI-H1915 = system: NCI-H1915
Procedure, shortened: as §1

SW 1573 = system: SW 1573
Procedure, shortened: as §1

NCI-H661 = system: NCI-H661
Procedure, shortened: as §1

BEN = system: BEN
Procedure, shortened: as §1

NCI-H460 = system: NCI-H460
Procedure, shortened: as §1

NCI-H1651 = system: NCI-H1651
Procedure, shortened: as §1

COR-L23 = system: COR-L23
Procedure, shortened: as §1

EPLC-272H = system: EPLC-272H
Procedure, shortened: as §1

NCI-H520 = system: NCI-H520
Procedure, shortened: as §1

NCI-H2347 = system: NCI-H2347
Procedure, shortened: as §1

NCI-H358 = system: NCI-H358
Procedure, shortened: as §1

A-427 = system: A-427
Procedure, shortened: as §1

SW 900 = system: SW 900
Procedure, shortened: as §1

EMC-BAC-2 = system: EMC-BAC-2
Procedure, shortened: as §1

NCI-H1793 = system: NCI-H1793
Procedure, shortened: as §1

HCC-44 = system: HCC-44
Procedure, shortened: as §1

LK-2 = system: LK-2
Procedure, shortened: as §1

NCI-H2087 = system: NCI-H2087
Procedure, shortened: as §1

Work on `COCC1(CO)C(=O)C2CCN1CC2` (stereo not drawn) [PRIMA-1MET] + Nc1ncn([C@H]2C[C@H](O)[C@@H](CO)O2)c(=O)n1 [Decitabine] (partner 2 µM) yielded a relative viability (LXF-289; first compound 0.2 µM) of 0.383, a relative viability (LXF-289; first compound 0.6325 µM) of 0.306 and a relative viability (LXF-289; first compound 2 µM) of 0.349. It also gave a relative viability (LXF-289; first compound 6.325 µM) of 0.373, a relative viability (LXF-289; first compound 20 µM) of 0.372 and a relative viability (EKVX; first compound 0.2 µM) of 0.407. For the same molecule, the relative viability (EKVX; first compound 2 µM) was 0.277, the relative viability (EKVX; first compound 6.325 µM) was 0.336 and the relative viability (EKVX; first compound 20 µM) was 0.199. It also gave a relative viability (NCI-H1650; first compound 0.2 µM) of 0.485, a relative viability (NCI-H1650; first compound 0.6325 µM) of 0.314 and a relative viability (NCI-H1650; first compound 2 µM) of 0.314. It also gave a relative viability (NCI-H1650; first compound 6.325 µM) of 0.382, a relative viability (NCI-H1650; first compound 20 µM) of 0.279 and a relative viability (NCI-H1915; first compound 0.2 µM) of 0.278. The relative viability (NCI-H1915; first compound 0.6325 µM) was 0.234, the relative viability (NCI-H1915; first compound 2 µM) was 0.252 and the relative viability (NCI-H1915; first compound 6.325 µM) was 0.256. For the same molecule, the relative viability (NCI-H1915; first compound 20 µM) was 0.27, the relative viability (SW 1573; first compound 0.2 µM) was 0.58 and the relative viability (SW 1573; first compound 2 µM) was 0.285. It also gave a relative viability (SW 1573; first compound 6.325 µM) of 0.0265, a relative viability (SW 1573; first compound 20 µM) of 0.0223 and a relative viability (NCI-H661; first compound 0.2 µM) of 0.549. It also gave a relative viability (NCI-H661; first compound 0.6325 µM) of 0.459, a relative viability (NCI-H661; first compound 2 µM) of 0.517 and a relative viability (NCI-H661; first compound 6.325 µM) of 0.567. For the same molecule, the relative viability (NCI-H661; first compound 20 µM) was 0.497, the relative viability (BEN; first compound 0.2 µM) was 0.747 and the relative viability (BEN; first compound 0.6325 µM) was 0.473. It also gave a relative viability (BEN; first compound 6.325 µM) of 0.652, a relative viability (BEN; first compound 20 µM) of 0.632 and a relative viability (NCI-H460; first compound 0.2 µM) of 0.595. It also gave a relative viability (NCI-H460; first compound 0.6325 µM) of 0.136, a relative viability (NCI-H460; first compound 2 µM) of 0.455 and a relative viability (NCI-H460; first compound 6.325 µM) of 0.513. For the same molecule, the relative viability (NCI-H460; first compound 20 µM) was 0.0203, the relative viability (NCI-H1651; first compound 0.2 µM) was 0.616 and the relative viability (NCI-H1651; first compound 0.6325 µM) was 0.178. It also gave a relative viability (NCI-H1651; first compound 2 µM) of 0.585, a relative viability (NCI-H1651; first compound 6.325 µM) of 0.666 and a relative viability (NCI-H1651; first compound 20 µM) of 0.6. It also gave a relative viability (COR-L23; first compound 0.2 µM) of 0.538, a relative viability (COR-L23; first compound 0.6325 µM) of 0.243 and a relative viability (COR-L23; first compound 2 µM) of 0.397. The relative viability (COR-L23; first compound 6.325 µM) was 0.439, the relative viability (COR-L23; first compound 20 µM) was 0.036 and the relative viability (EPLC-272H; first compound 0.2 µM) was 0.353. For the same molecule, the relative viability (EPLC-272H; first compound 0.6325 µM) was 0.306, the relative viability (EPLC-272H; first compound 2 µM) was 0.323 and the relative viability (EPLC-272H; first compound 6.325 µM) was 0.392. For the same molecule, the relative viability (EPLC-272H; first compound 20 µM) was 0.272, the relative viability (NCI-H520; first compound 0.2 µM) was 0.506 and the relative viability (NCI-H520; first compound 2 µM) was 0.413. It also gave a relative viability (NCI-H520; first compound 6.325 µM) of 0.521, a relative viability (NCI-H520; first compound 20 µM) of 0.219 and a relative viability (NCI-H2347; first compound 0.2 µM) of 0.705. For the same molecule, the relative viability (NCI-H2347; first compound 0.6325 µM) was 0.549, the relative viability (NCI-H2347; first compound 2 µM) was 0.605 and the relative viability (NCI-H2347; first compound 6.325 µM) was 0.668. It also gave a relative viability (NCI-H2347; first compound 20 µM) of 0.63, a relative viability (NCI-H358; first compound 0.2 µM) of 0.214 and a relative viability (NCI-H358; first compound 0.6325 µM) of 0.154. It also gave a relative viability (NCI-H358; first compound 2 µM) of 0.215, a relative viability (NCI-H358; first compound 6.325 µM) of 0.207 and a relative viability (NCI-H358; first compound 20 µM) of 0.183. It also gave a relative viability (A-427; first compound 0.2 µM) of 0.648, a relative viability (A-427; first compound 0.6325 µM) of 0.532 and a relative viability (A-427; first compound 2 µM) of 0.621. The relative viability (A-427; first compound 6.325 µM) was 0.568, the relative viability (A-427; first compound 20 µM) was 0.501 and the relative viability (SW 900; first compound 0.2 µM) was 0.402. For the same molecule, the relative viability (SW 900; first compound 0.6325 µM) was 0.386, the relative viability (SW 900; first compound 6.325 µM) was 0.425 and the relative viability (SW 900; first compound 20 µM) was 0.0976. It also gave a relative viability (EMC-BAC-2; first compound 0.2 µM) of 1, a relative viability (EMC-BAC-2; first compound 0.6325 µM) of 0.818 and a relative viability (EMC-BAC-2; first compound 2 µM) of 0.967. The relative viability (EMC-BAC-2; first compound 6.325 µM) was 0.938, the relative viability (EMC-BAC-2; first compound 20 µM) was 0.928 and the relative viability (NCI-H1793; first compound 0.2 µM) was 0.484. For the same molecule, the relative viability (NCI-H1793; first compound 0.6325 µM) was 0.333, the relative viability (NCI-H1793; first compound 6.325 µM) was 0.489 and the relative viability (NCI-H1793; first compound 20 µM) was 0.424. It also gave a relative viability (HCC-44; first compound 0.2 µM) of 1.04, a relative viability (HCC-44; first compound 0.6325 µM) of 0.595 and a relative viability (HCC-44; first compound 2 µM) of 0.998. For the same molecule, the relative viability (HCC-44; first compound 6.325 µM) was 0.942, the relative viability (HCC-44; first compound 20 µM) was 0.93 and the relative viability (LK-2; first compound 0.2 µM) was 0.262. For the same molecule, the relative viability (LK-2; first compound 0.6325 µM) was 0.158, the relative viability (LK-2; first compound 2 µM) was 0.247 and the relative viability (LK-2; first compound 6.325 µM) was 0.182. It also gave a relative viability (LK-2; first compound 20 µM) of 0.0846, a relative viability (NCI-H2087; first compound 0.6325 µM) of 0.226 and a relative viability (NCI-H2087; first compound 2 µM) of 0.315. The relative viability (NCI-H2087; first compound 6.325 µM) was 0.251 and the relative viability (NCI-H2087; first compound 20 µM) was 0.174.
